1 molecule from patent publication US20250296971A1, “GASTRIC INHIBITORY PEPTIDE RECEPTOR LIGANDS” (priority 2021, published 2025) can be followed below.

The structures appear in SMILES notation. *1 amine or outer side, *2 acyl side, *3 side chain or, on linkers, in order; H or OH if unused. Where a SMILES comes first, the peptide text is derived from it. Bridges are numbered along the chain shown (N, C = ends). [ ]: non-standard residue; d: D form. The star is where a group is joined. NH(1-deoxy-D-glucityl) = OC[C@@H](O)[C@@H](O)[C@H](O)[C@@H](O)CN*; DOTA = O=C(O)CN1CCN(CC(=O)O)CCN(CC(=O)*)CCN(CC(=O)O)CC1; Trp(5-Cl) = N[C@@H](Cc1c[nH]c2ccc(Cl)cc12)C(=O)O; Pyridine(2,6-diCH2) = c1cc(C[*:1])nc(C[*:2])c1; Pro(4R-NH2) = N[C@H]1CN[C@H](C(=O)O)C1; Glutaryl = O=C(CCCC(=O)[*:2])[*:1]; X1 = O=C(CN1CCC(N[*:1])CC1)[*:2]; Api = NC1(C(=O)O)CCNCC1

For one series, the target named is T1, Dog GIPR (Canis lupus familiaris, UniProt A0A8I3MPG1).
T1 construct: host or cells: CHO-VGT
T1 sequence (A0A8I3MPG1 24-449): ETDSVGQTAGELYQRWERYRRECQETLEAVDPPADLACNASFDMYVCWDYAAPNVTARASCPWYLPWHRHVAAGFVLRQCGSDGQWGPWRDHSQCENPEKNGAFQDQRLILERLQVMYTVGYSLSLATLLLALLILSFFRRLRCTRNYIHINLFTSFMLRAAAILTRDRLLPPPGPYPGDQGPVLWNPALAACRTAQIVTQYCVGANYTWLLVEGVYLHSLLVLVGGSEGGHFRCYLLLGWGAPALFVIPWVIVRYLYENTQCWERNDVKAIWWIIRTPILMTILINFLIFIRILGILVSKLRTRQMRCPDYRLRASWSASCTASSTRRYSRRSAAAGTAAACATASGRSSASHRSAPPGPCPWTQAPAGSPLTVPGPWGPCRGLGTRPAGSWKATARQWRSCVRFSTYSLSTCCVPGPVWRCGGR
Kind of series: Radioligand binding assay, dog GIPR. As to conditions: 111In-labeled compound, 6 h, 37° C., read-out: pKD Category (converted). How it is done: (§1) In order to assess the affinity of ^111In-labeled compounds to the GIPR receptor of different species, a radioligand binding assay was established.
(§2) CHO-K1 cells (GenScript Biotech, #M00486) were stably transfected with the human GIPR. CHO-K1-hGIPR cells were cultured in Ham's F12 medium (Sigma-Aldrich, #N4888) including 10% fetal calf serum (FCS), 2 mM L-glutamine, 100 U/mL penicillin, 100 µg/mL streptomycin, 200 µg/mL Zeocin and 100 µg/mL HygromycinB. To evaluate the species cross-reactivity, CHO-VGT cells were transfected with the human, dog, rat and mouse GIPR (Inscreenex GmbH), which were cultured in DMEM/Ham's F12 Medium 1:1 (Biochrom, #F485) including 5% fetal calf serum (FCS), 2 mM L-glutamine, 100 U/mL penicillin and 100 μg/mL streptomycin. Cells were detached with Accutase (Biolegend, #BLD-423201) and counted using a particle counter (CASY Model TT; Schärfe Systems). Cell concentrations were adjusted to 3×10^5 mL^−1, and 1.000 μL of the suspension per well were dispensed into flat-clear-bottom 24 well plates.
(§3) Approximately 24 hours after re-seeding, the medium was aspirated and the cells were washed once with 700 μL assay medium (Ham's medium with 20 mM HEPES). […]
(§4) At the end of incubation time, cells were washed and subsequently harvested in 300 μL RIPA buffer containing PIC. Radioactivity of the cell lysate of each well was counted using a gamma counter (Perkin Elmer). […]

The next series deals with T2, Rat GIPR (Rattus norvegicus, UniProt P43219).
T2 construct: host or cells: CHO-VGT
T2 sequence (P43219 19-455): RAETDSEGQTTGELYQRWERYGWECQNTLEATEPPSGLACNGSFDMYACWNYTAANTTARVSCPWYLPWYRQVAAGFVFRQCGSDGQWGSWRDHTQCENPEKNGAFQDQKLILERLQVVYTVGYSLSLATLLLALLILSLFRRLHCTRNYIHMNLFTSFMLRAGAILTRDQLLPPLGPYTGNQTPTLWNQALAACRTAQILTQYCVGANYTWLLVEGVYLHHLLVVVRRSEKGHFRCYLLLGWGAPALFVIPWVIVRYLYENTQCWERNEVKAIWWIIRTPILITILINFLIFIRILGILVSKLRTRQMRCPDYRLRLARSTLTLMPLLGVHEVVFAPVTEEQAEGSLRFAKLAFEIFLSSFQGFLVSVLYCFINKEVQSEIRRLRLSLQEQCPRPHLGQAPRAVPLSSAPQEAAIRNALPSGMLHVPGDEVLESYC
Description: Radioligand binding assay, rat GIPR. The conditions noted are these: 111In-labeled compound, 6 h, 37° C., read-out: pKD Category (converted). How it is done: as §1, §2, §3, §4

For the next series, the target named is T3, Mouse GIPR (Mus musculus, UniProt Q0P543).
T3 construct: host or cells: CHO-VGT
T3 sequence (Q0P543 19-460): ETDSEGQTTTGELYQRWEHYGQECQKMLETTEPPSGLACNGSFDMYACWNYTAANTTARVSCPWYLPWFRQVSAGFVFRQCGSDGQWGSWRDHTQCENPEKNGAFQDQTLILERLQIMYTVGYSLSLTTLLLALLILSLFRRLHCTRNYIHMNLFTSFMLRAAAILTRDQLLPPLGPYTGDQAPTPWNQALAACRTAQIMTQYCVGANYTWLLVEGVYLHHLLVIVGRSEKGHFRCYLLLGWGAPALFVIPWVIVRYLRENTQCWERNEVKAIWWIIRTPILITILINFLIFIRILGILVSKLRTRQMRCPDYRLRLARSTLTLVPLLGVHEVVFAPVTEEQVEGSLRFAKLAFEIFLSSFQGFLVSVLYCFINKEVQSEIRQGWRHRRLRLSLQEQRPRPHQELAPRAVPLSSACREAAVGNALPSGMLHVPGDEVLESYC
Description: Radioligand binding assay, mouse GIPR. The conditions noted are these: 111In-labeled compound, 6 h, 37° C., read-out: pKD Category (converted). How it is done:
as §1, §2, §3, §4

Series [1] addresses Recombinant soluble human NEP (Homo sapiens, UniProt P08473). Description: Proteolytic stability assay against NEP. The conditions noted are these: NEP 100 ng/mL, compound 10 μM, 37° C., % intact compound remaining.

Recombinant soluble human NEP, sequence (P08473 52-750 limits assumed): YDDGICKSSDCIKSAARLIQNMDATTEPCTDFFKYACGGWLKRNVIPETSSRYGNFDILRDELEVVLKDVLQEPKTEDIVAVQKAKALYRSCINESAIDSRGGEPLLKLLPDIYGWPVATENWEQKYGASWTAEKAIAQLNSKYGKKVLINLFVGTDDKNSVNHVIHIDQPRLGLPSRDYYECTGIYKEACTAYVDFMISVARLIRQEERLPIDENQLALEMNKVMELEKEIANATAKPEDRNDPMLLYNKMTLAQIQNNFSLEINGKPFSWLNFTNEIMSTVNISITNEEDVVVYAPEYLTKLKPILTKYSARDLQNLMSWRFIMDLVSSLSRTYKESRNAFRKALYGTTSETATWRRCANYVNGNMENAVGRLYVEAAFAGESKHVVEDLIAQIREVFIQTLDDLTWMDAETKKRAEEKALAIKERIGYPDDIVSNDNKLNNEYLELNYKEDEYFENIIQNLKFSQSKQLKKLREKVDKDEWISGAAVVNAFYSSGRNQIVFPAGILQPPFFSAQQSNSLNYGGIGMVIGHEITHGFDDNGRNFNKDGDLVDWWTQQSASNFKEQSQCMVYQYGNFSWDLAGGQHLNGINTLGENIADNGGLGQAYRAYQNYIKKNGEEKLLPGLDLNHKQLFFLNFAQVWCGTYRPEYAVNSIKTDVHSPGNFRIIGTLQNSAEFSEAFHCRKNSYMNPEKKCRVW

For `CC[C@H](C)[C@@H]1NC(=O)[C@H](CC(C)C)NC(=O)C2(CCN(C(=O)CN3CCN(CC(=O)O)CCN(CC(=O)O)CCN(CC(=O)O)CC3)CC2)NC(=O)[C@@H](NC(=O)[C@@H](CC(C)C)NC(=O)[C@H](CCC(=O)O)NC(=O)[C@@H]2C[C@@H](N)CN2C(=O)[C@H](Cc2c[nH]c3ccc(Cl)cc23)NC(=O)[C@H](Cc2c[nH]c3ccccc23)NC(=O)[C@H](CC(=O)O)NC(=O)CCCC(=O)NC[C@H](O)[C@@H](O)[C@H](O)[C@H](O)CO)CSCc2cccc(n2)CSC[C@@H](C(=O)NC2CCN(CC(=O)N[C@H](CCC(=O)NC[C@H](O)[C@@H](O)[C@H](O)[C@H](O)CO)C(N)=O)CC2)NC1=O` [GIP-001, AGLU-Glutar-Asp-Trp-5Clw-Tap-Glu-leu-[Cys(2Lut)-Apc(DOTA)-Leu-Ile-Cys]-APAc-glu(AGLU)-NH2] ({NH(1-deoxy-D-glucityl)-Glutaryl}-DW[Trp(5-Cl)][Pro(4R-NH2)]E[dL]C[Api](DOTA)LIC[X1][dE](NH(1-deoxy-D-glucityl))-NH2; linker 7-11 via Pyridine(2,6-diCH2)), the Kd was < 0.316 nM at Dog GIPR, 0.316 to 1 nM at Rat GIPR and > 1 nM at Mouse GIPR. The NEP stability category entry in series [1] was “A (>80% intact after 24 hours)”.
